From ChEMBL document CHEMBL1201862, “PubChem BioAssay data set” (2004)
Calls of active or inactive are those of the source.

Legend:
Ephrin type-A receptor 4 = Ephrin type-A receptor 4 (Mus musculus, UniProt Q03137); test: inhibitors of EphA4 binding to KYL peptide, primary screen, biochemical, colorimetric, mouse EphA4 (AID 689); assay type: functional
[1] = target: G-protein coupled receptor 183 (Homo sapiens, UniProt P32249); test: SAR confirmation of small molecule antagonists of the EBI2 receptor via a luminescent beta-arrestin assa.; assay type: functional
[2] = HEp-2 cell cytotoxicity, dose response, cytotoxicity control for RSV inhibitor project, HTS (AID 2410); assay type: functional; conditions: human respiratory syncytial virus
[3] = target: T1, 5-hydroxytryptamine receptor 1A (Homo sapiens, UniProt P08908); assay type: functional
T1 sequence (P08908 whole entry): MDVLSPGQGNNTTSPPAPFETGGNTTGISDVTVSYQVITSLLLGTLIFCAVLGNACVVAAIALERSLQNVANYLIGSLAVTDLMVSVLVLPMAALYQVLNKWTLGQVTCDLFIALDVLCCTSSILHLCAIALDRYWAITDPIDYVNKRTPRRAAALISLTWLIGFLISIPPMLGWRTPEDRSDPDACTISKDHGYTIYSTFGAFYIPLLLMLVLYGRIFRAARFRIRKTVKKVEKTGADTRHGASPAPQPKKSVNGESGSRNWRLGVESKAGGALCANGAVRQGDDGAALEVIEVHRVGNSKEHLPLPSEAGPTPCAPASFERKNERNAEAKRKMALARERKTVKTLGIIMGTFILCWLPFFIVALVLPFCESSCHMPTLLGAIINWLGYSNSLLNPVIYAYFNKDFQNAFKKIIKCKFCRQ

[4] = target: T2, High affinity choline transporter 1 (Homo sapiens, UniProt Q9GZV3); test: CHT inhibitors, dose response, cell-based, 5-point CRC, membrane potential dye (AID 504840); assay type: functional
T2 sequence (Q9GZV3 whole entry): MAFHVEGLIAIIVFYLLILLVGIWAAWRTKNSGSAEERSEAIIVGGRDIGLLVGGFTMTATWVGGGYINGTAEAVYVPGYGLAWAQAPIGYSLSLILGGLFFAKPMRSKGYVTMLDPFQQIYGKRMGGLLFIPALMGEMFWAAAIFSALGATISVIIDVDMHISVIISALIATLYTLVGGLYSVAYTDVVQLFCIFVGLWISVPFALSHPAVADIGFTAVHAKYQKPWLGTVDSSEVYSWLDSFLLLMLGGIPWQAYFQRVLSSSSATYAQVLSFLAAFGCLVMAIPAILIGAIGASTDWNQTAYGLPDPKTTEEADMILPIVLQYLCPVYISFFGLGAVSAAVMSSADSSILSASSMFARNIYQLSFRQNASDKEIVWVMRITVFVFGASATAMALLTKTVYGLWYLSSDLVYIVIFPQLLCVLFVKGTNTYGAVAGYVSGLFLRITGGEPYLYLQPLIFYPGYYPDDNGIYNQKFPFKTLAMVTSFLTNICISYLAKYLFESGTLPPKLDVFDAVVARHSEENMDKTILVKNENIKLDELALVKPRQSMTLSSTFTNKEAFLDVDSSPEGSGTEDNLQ

14-3-3 protein gamma = target: T3, 14-3-3 protein gamma (Homo sapiens, UniProt P61981); test: modulators of 14-3-3 gamma client binding – dose response (AID 711); assay type: functional
T3 sequence (P61981 whole entry): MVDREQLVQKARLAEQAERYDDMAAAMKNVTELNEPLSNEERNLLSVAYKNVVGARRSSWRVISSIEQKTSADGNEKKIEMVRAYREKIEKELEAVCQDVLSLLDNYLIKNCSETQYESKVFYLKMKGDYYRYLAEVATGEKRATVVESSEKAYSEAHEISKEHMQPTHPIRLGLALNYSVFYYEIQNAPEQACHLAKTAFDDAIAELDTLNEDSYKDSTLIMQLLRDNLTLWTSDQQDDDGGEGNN

[5] = target: Voltage-gated inwardly rectifying potassium channel KCNH2 (Homo sapiens, UniProt Q12809); test: hERG protection from proarrhythmic block, potency, dose response, cell-based, thallium flux (AID 2121); assay type: ADME
[6] = target: T4, Bifunctional protein GlmU (Mycobacterium tuberculosis, UniProt P9WMN3); test: Inhibitors of Mycobacterial Glucosamine-1-phosphate acetyl transferase (GlmU). Secondary screen.; parameters: species or system Mycobacterium tuberculosis H37Rv
T4 sequence (P9WMN3 whole entry): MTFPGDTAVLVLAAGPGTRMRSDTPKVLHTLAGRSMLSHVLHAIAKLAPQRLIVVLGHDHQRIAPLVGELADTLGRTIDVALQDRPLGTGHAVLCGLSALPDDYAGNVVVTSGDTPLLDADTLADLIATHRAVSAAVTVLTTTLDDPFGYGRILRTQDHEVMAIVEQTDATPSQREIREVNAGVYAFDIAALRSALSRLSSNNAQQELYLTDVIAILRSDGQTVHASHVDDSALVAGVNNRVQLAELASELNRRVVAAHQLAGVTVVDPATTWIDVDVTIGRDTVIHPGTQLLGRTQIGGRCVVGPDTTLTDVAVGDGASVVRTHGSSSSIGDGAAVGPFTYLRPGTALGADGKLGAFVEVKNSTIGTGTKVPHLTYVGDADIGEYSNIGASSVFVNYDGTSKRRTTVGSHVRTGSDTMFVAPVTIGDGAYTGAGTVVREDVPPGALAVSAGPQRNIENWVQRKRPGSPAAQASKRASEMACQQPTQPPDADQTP

[7] = target: T5, RNA-binding protein pos-1 (Caenorhabditis elegans, UniProt G5EF15); test: inhibitors of POS-1/mex-3 RNA binding, dose response, biochemical, fluorescence polarization (AID 1964);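 note: purified POS-1 fused to maltose binding protein made in E. coli; potency of compounds blocking POS-1 binding to fluorescent RNA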
T5 sequence (G5EF15 whole entry): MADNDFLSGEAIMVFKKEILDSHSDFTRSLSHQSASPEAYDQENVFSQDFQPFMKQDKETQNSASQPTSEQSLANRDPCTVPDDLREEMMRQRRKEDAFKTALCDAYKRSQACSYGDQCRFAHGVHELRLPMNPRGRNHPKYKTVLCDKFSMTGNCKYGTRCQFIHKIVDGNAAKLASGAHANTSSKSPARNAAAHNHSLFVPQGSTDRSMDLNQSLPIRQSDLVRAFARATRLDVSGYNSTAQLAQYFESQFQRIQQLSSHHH

[8] = target: DNA dC->dU-editing enzyme APOBEC-3G (Homo sapiens, UniProt Q9HC16); assay type: functional;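 note: Dose-response counterscreen measuring inhibition of APOBEC3G DNA deaminase activity, run while confirming APOBEC3A inhibitors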
[9] = target: T6, Zinc finger protein mex-5 (Caenorhabditis elegans, UniProt Q9XUB2); test: MEX-5/TCR-2 RNA interaction inhibitors, dose response, biochemical, C. elegans, fluorescence polarization (AID 1960)
T6 sequence (Q9XUB2 whole entry): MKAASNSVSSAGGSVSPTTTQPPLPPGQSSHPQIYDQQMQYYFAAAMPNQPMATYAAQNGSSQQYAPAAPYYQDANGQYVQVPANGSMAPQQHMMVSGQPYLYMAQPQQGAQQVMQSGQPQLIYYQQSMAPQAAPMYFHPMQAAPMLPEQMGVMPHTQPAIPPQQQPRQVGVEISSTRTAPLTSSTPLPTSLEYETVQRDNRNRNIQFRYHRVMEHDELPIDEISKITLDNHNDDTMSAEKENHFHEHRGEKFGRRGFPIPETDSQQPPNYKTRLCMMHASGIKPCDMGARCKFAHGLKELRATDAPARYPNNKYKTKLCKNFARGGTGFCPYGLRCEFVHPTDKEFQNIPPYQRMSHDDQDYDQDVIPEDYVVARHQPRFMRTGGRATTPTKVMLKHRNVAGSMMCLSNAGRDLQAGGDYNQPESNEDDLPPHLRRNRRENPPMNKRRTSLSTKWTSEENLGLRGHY

[10] = target: DNA dC->dU-editing enzyme APOBEC-3A (Homo sapiens, UniProt P31941); test: Dose Response confirmation of small molecule APOBEC3A DNA Deaminase Inhibitors via a fluorescence-based single-stranded DNA deaminase assay. [Related pubchem assays (depositor defined):AID493011, AID493024]; assay type: functional
[11] = target: DNA (cytosine-5)-methyltransferase 1 (Homo sapiens, UniProt P26358); test: DNMT1 methyltransferase inhibitors, confirmation, biochemical, fluorescent molecular beacon (AID 602386); assay type: functional
[12] = target: 26S proteasome non-ATPase regulatory subunit 14 (Homo sapiens, UniProt O00487); test: inhibition of proteasome subunit RPN11 – biochemical, fluorescence polarization, uHTS hits, confirmation (AID 602368); assay type: functional
Prothrombin = Prothrombin (Bos taurus, UniProt P00735); test: thrombin inhibition, dose response, biochemical, fluorescence polarization, uHTS hits (AID 602369); assay type: functional
ORF 73 = target: T7, ORF 73 (Human herpesvirus 8, UniProt O40947); test: inhibitors of C-LANA binding to LBS DNA, dose response, biochemical, fluorescence polarization, cherry-picked samples (AID 504725); parameters: species or system Human gammaherpesvirus 8;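 note: fluorescence polarization of a labeled DNA duplex reporting LANA DNA binding; potency is for inhibitors that block LANA binding to the DNA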
T7 sequence (O40947 whole entry): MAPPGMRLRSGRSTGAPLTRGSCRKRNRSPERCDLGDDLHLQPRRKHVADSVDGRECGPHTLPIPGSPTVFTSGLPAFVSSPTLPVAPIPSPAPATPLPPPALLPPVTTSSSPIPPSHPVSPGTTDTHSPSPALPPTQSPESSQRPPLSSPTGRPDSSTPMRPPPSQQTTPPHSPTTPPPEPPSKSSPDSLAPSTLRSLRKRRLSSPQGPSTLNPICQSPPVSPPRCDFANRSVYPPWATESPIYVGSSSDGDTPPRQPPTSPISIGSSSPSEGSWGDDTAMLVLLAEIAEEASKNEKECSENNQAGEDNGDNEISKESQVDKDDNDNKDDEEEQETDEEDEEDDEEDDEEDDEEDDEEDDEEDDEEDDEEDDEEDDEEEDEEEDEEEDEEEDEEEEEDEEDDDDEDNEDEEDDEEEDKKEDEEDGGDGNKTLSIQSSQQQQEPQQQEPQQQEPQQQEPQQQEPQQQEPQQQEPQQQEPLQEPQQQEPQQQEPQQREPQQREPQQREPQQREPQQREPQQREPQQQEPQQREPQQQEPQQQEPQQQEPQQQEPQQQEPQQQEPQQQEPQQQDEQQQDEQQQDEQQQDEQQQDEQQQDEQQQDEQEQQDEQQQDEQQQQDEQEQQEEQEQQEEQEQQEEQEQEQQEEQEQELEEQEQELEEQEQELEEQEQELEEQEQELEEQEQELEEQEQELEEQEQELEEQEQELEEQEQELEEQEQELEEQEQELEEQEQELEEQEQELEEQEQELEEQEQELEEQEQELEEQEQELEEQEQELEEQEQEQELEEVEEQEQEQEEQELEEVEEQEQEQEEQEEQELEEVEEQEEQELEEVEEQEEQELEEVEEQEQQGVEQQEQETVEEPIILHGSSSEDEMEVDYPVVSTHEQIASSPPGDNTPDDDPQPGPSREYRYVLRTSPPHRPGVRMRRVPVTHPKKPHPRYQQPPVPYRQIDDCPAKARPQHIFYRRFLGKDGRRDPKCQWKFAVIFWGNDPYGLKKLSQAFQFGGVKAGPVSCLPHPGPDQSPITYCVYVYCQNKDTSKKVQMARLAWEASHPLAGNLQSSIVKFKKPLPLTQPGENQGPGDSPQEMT

[13] = target: 72 kDa type IV collagenase (Homo sapiens, UniProt P08253); test: Dose Response validation of uHTS RPN11 inhibitor hits using a MMP-2 Fluorescence assay.; assay type: functional
72 kDa type IV collagenase, sequence (P08253 whole entry): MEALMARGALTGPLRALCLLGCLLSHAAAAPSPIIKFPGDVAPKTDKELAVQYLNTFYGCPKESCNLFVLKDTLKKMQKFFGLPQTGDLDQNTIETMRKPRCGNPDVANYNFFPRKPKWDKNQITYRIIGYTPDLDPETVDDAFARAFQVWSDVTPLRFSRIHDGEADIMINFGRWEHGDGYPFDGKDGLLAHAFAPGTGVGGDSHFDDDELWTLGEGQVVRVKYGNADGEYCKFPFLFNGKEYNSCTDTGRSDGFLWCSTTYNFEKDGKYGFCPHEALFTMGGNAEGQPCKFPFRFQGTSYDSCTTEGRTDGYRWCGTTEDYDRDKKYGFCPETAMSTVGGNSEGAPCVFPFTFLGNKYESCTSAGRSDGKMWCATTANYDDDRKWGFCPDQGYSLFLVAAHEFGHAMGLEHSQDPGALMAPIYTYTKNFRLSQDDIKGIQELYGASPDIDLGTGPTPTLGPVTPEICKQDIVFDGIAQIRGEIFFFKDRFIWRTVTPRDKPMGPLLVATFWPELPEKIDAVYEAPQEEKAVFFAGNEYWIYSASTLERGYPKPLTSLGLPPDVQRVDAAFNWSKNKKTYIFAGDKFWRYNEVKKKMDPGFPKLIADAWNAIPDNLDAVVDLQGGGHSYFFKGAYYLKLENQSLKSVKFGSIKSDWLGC

G-protein coupled receptor 183, sequence (P32249 whole entry): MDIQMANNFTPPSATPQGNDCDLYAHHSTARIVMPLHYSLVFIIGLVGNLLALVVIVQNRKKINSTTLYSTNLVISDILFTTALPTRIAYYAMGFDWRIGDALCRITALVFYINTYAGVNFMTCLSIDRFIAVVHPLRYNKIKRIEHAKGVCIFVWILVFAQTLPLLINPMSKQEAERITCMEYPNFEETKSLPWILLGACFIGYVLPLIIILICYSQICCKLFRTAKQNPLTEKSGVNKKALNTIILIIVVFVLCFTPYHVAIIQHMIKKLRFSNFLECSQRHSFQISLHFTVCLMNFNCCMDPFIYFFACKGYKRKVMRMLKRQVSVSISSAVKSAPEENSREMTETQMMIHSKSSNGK
Voltage-gated inwardly rectifying potassium channel KCNH2, sequence (Q12809 whole entry): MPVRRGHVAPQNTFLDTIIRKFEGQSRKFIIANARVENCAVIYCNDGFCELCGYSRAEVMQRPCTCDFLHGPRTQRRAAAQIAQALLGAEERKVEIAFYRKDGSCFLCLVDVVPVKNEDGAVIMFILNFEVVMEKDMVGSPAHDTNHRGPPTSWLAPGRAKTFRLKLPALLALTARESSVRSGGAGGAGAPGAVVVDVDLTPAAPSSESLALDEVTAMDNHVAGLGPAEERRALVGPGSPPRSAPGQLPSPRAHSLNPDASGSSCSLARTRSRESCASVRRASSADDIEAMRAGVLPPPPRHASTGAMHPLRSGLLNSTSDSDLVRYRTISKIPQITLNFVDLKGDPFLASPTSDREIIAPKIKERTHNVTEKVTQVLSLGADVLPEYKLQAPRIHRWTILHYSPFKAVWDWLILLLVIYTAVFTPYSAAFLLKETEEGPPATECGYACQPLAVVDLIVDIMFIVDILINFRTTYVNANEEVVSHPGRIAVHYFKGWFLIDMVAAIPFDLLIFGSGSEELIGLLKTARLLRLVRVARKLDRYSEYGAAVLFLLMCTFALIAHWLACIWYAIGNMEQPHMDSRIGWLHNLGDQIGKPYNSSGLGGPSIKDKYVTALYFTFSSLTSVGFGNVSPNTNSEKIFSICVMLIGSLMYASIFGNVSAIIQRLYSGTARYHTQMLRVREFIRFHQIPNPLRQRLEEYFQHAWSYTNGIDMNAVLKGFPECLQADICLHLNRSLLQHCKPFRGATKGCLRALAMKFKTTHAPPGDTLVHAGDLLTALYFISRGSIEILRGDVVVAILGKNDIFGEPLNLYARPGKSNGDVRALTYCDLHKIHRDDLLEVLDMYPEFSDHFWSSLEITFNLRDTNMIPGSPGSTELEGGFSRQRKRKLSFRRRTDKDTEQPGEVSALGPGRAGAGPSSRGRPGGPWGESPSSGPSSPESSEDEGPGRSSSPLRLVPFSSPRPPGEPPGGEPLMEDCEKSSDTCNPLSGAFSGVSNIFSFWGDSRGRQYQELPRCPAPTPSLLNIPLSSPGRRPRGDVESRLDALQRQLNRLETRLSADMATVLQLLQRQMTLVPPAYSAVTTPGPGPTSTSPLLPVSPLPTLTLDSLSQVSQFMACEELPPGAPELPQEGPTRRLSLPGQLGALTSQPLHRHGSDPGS
Ephrin type-A receptor 4, sequence (Q03137 whole entry): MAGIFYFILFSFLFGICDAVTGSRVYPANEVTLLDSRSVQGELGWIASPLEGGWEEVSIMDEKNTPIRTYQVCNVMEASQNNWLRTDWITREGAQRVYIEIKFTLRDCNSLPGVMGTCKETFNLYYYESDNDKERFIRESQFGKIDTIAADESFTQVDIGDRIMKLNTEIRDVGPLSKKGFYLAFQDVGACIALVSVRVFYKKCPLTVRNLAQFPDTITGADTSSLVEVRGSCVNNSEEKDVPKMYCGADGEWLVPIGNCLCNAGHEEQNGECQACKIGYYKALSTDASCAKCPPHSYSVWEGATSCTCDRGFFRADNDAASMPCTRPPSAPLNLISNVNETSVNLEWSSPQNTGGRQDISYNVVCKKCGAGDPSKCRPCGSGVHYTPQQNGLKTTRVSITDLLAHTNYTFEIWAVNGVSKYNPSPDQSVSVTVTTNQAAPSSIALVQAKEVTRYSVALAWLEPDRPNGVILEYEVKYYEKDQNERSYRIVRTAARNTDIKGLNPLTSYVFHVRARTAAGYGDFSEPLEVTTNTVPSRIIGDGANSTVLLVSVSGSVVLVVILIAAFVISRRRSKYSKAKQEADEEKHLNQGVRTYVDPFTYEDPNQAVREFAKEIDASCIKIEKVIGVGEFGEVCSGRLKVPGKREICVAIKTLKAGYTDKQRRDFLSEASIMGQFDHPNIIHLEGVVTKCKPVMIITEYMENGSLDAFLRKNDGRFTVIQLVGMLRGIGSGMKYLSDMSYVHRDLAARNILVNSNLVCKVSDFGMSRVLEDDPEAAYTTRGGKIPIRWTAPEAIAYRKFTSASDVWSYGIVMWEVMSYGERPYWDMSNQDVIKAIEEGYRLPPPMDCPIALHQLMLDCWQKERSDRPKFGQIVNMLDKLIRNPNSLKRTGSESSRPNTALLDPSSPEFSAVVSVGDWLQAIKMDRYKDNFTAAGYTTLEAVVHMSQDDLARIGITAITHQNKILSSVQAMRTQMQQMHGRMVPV
DNA dC->dU-editing enzyme APOBEC-3G, sequence (Q9HC16 whole entry): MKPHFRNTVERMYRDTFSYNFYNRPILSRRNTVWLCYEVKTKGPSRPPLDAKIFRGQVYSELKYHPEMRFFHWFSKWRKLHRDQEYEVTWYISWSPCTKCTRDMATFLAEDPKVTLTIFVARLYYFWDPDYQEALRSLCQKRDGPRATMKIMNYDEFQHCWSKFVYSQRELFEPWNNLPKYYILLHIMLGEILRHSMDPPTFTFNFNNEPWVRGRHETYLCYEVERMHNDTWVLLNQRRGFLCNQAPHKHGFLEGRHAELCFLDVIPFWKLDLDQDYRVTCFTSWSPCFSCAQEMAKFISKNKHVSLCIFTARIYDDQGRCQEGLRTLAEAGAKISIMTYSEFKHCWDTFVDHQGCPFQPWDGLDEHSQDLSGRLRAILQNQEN
26S proteasome non-ATPase regulatory subunit 14, sequence (O00487 whole entry): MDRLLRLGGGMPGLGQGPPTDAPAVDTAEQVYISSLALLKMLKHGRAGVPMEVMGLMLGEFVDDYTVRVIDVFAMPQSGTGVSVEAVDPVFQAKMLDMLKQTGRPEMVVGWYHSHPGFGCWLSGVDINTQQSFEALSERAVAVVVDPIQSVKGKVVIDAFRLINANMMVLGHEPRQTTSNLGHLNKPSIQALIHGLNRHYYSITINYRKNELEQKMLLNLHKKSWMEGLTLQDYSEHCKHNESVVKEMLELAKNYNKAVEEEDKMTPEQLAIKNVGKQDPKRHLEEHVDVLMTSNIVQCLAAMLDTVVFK
DNA dC->dU-editing enzyme APOBEC-3A, sequence (P31941 whole entry): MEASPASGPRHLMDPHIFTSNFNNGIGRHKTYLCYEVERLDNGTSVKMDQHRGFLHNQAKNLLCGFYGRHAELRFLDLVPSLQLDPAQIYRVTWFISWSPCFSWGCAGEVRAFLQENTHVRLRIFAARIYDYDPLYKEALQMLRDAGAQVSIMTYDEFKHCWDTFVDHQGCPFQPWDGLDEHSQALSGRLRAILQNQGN

For `C/C(=C\C(=O)c1ccccc1)NNc1nc2ccccc2s1`, which IC50 (Ephrin type-A receptor 4) is on record?
Its IC50 is > 100 µM (not active).

Which IC50 [1] does the source give for `O=C(/C=C/c1ccc(Br)cc1)N1CCN(C(=O)c2ccc(Cl)cc2)CC1` here?
The IC50 was 0.000409 µM (active).

For `Cc1cccc(N2CCN(C(=O)Cc3c(C(=O)O)[nH]c4ccc(Cl)cc34)CC2)c1C`, which CC50 [2] is on record?
The CC50 was 20.4 µM (active).

What about the EC50 [3] of the same molecule?
Its EC50 is > 50 µM (not active).

What about the IC50 [4] of the same molecule?
Its IC50 is 10.8 µM (active).

With `CC(C)(C)c1ccc(S(=O)(=O)N2CCN(C(=O)/C=C/c3ccc(F)cc3)CC2)cc1` as the molecule, how does the IC50 [1] read?
Its IC50 is 0.0124 µM (active).

For `COc1ccc(-n2ncc3c(N4CCCc5ccccc54)ncnc32)cc1`, which IC50 (14-3-3 protein gamma) is on record?
The IC50 was > 50 µM (not active).

Which IC50 [1] does the source give for `O=C(/C=C/c1ccc(F)cc1)N1CCN(S(=O)(=O)c2cc(Cl)ccc2Cl)CC1` here?
The IC50 was 0.0219 µM (active).

With `CCOc1ccc(N2C(=O)NC(=O)/C(=C\NCCN3CCNCC3)C2=O)cc1` as the molecule, how does the IC50 (14-3-3 protein gamma) read?
The IC50 was > 50 µM (not active).

For `O=C(Nc1cccc(-c2cn3ccsc3n2)c1)c1ccccc1`, which EC50 [3] is on record?
Its EC50 is > 50 µM (not active).

Which EC50 [5] does the source give for `CCOC(=O)c1sc(NN=C(C(=O)OC)C(=O)OC)c(C(=O)OCC)c1C` here?
Its EC50 is 0.21 µM (active).

With `Cc1nn(-c2ccccc2)c2c1C(c1cccnc1)N1C=C(S(=O)(=O)N3CCCCC3)C=CC1=N2` (centres undefined) as the molecule, how does the IC50 (Ephrin type-A receptor 4) read?
The IC50 was > 100 µM (not active).

With `CSc1nnc(SCc2nc3sc(C(=O)O)c(C)c3c(=O)[nH]2)s1` as the molecule, how does the IC50 [6] read?
The IC50 was 76.2 µM (active).

What about the EC50 [7] of the same molecule?
Its EC50 is 25.4 µM (active).

And the IC50 [8]?
Its IC50 is 24.6 µM (active).

And the EC50 [9]?
The EC50 was 30.6 µM (active).

What about the IC50 [10] of the same molecule?
Its IC50 is 14 µM (active).

For `O=C1C2CC=CCC2C(=O)N1c1ccc(Cc2ccncc2)cc1` (centres undefined), which EC50 [5] is on record?
The EC50 was 0.86 µM (active).

For `COC(=O)c1ccccc1NC(=O)CCS(=O)(=O)c1ccc(Br)cc1`, which IC50 [6] is on record?
Its IC50 is 28.6 µM (active).

And the IC50 [11]?
Its IC50 is 3.69 µM (active).

What about the IC50 [12] of the same molecule?
Its IC50 is 14 µM (active).

And the IC50 (Prothrombin)?
The IC50 was > 100 µM (inactive).

What about the AC50 (ORF 73) of the same molecule?
Its AC50 is 31.5 µM (active).

What about the IC50 [13] of the same molecule?
Its IC50 is 22.5 µM (active).
